From patent publication US20230301972A1, “ANTI-FIBROTIC COMPOSITION AND RELATED METHODS” (Fred Hutchinson Cancer Center, priority 2020, published 2023)

Key:
CCl4-induced fibrosis = assay: Carbon tetrachloride (CCl4)-induced liver fibrosis mouse model; assay type: in vivo; settings: vs CCl4-only treated mouse livers tissues; RPPA, IHC
TGF-β = assay: Time course of TGF-β-induced phosphorylation of SMAD2 and ERK in IPF-LL29 cells (reverse-phase protein array); assay type: cell-based, human; settings: 1 mM OSI-632 as printed, TGF-β 5 ng/ml
Description: (§1) IPF-LL29, IPF-LL97A, and human lung fibroblast LL47 cell lines were purchased from ATCC. Mouse lung fibroblasts were isolated from the lungs of male C57BL/6J mice. Cells were grown at 37° C. under 5% CO2, 95% ambient atmosphere and maintained in Dulbecco's […] (DMEM) supplemented with 10% FBS (Sigma) and 1% Penn Strep.
FIG. 1B. […] At the end of the experiment, cells were lysed in 2% SDS lysis buffer. Protein levels of phosphorylated SMAD2 and ERK were detected in the cell lysates by reverse-phase protein array.

SMAD2 phosphorylation = assay: Immunoblot of TGF-β-mediated SMAD2 phosphorylation in LX2 cells; assay type: cell-based, human
LX2 cells = assay: Live cell wound healing assay in LX2 cells; assay type: cell-based, human; settings: 1 μM; TGFb 6.5 ng/ml; wound closure density at 50 hour
Description: (§2) LX2 cells were obtained from Sigma Aldrich (Cat #SCC064). LX2 cells were grown at 37° C. under 5% CO2, 95% ambient atmosphere and maintained in Dulbecco's […] (DMEM) supplemented with 10% FBS (Sigma) and 1% Penn Strep.
FIG. 10A: LX2 cells were plated on 96-well plates (Essen Image Lock, Essen Instruments). […] Wound closure was monitored with Incucyte Live-Cell Imaging System and software (Essen Instruments) every 2-4 hours for 72 hours. The mean relative wound density of at least three biological replicates was calculated. The wound density correlates with the cell motility. Plotted is the wound closure density at 50 hour.

SMAD2/3 = assay: SMAD firefly luciferase TGF-β reporter assay in IPF-LL29 cells; assay type: cell-based, human; settings: TGF-β 5 ng/ml, 24 hour
Description: as §1
FIG. 1A. A TGF-β reporter cell line was generated by transducing a SMAD firefly luciferase reporter (Cellomics Tech, Cat #PLV-10099-50) into IPF-LL29 cells. […] 24 hours later, luciferase substrate was added to the cells and luciferase signal was measured by Bright-Glo reagent (Promega) using a luminescent plate reader. The intensity of the signal correlates with the activity of SMAD2/3.

TGFBR1/2 = assay: Kinome-profiling, TGFBR1/2; assay type: biochemical; settings: at 500 nM
[1] = test system: TGF-β activity in LX2 cells; assay: SMAD2/3 luciferase reporter assay of TGF-β activity in LX2 cells; assay type: cell-based, human
From the text: In preliminary studies, a well-established, culture-activated human hepatic stellate cell model (LX2, initially established by Scott Friedman as described in Xu, L. et al., Human hepatic stellate cell lines, LX-1 and LX-2: new tools for analysis of hepatic fibrosis. Gut 54, 142-151 (2005), incorporated herein by reference in its entirety) was used and a set of 32 computationally chosen, broad-specific kinase inhibitors that collectively target a broad range of kinases were screened. Each drug was examined at eight concentrations, and its effect on the activity of TGF-β (measured by SMAD2/3 luciferase reporter) and on aHSC cell viability was scored. 1536 data points were then analyzed to develop regression modeling to predict the response to >400 drugs (FIG. 9A). […] (FIG. 9B).
as §2

VEGFR = assay: Kinome-profiling, VEGFR; assay type: biochemical; settings: at 500 nM
LL47 cells = assay: Real-time wound healing assay (Incucyte) in lung fibroblasts; assay type: cell-based; settings: dose-dependent; human lung fibroblasts
Description: FIG. 5A: LL47 cells were plated on 96-well plates (Essen Image Lock, Essen Instruments). […] Wound closure was monitored with Incucyte Live-Cell Imaging System and software (Essen Instruments) every 2-4 hours for 72 hours. The mean relative wound density of at least three biological replicates was calculated. The wound density correlates with the cell motility.

IPF lung fibroblasts = assay: Collagen contraction assay in lung fibroblasts; assay type: cell-based, human
Description: FIG. 5B: LL-47 cells were cultured in a collagen gel solution in 24-well plate. […] After 24 hours, cell contraction was initiated by releasing the collagen gels from the sides of the culture dishes. The collagen gel size change (contraction index) was measured at various times and quantified with Image Lab.
FIG. 5C: same method as outlined in FIG. 5B. IPF-LL29 and IPF-LL97A cells were cultured in a collagen gel solution. 24 hours later, TGF-β alone or together with indicated drugs was added for 24 hours before cell contraction was initiated. Images shown here were taken 120 hours after the initiation of cell contraction.

SMILES: NC(=O)c1c(OCc2c(F)cc(Br)cc2F)nsc1NC(=O)NCCCCN1CCCC1 [OSI-632, 3-(4-bromo-2,6-difluoro-benzyloxy)-5-[3-(4-pyrrolidin-1-yl-butyl)-ureido]-isothiazole-4-carboxylic acid amide]
- CCl4-induced phosphorylation of Smad2, Pdgfrb, Fgfr, Src, Nfκβ, and STAT3 (CCl4-induced fibrosis): significantly decreased
- activity of TGF-β (measured by phosphorylation of SMAD2/3 and Erk) (TGF-β): significantly decreased
- activation of TGF-β-mediated SMAD2 phosphorylation (immunoblot) (SMAD2 phosphorylation): blocks activation
- TGF-β-induced motility of LX2 cells (LX2 cells): significantly decreased
- SMAD2/3 activity (luciferase reporter, dose response) (SMAD2/3): inhibited SMAD2/3 activity
- inhibition of TGFBR1/2 (TGFBR1/2): 91%
- IC50 ([1]; Homo sapiens, LX-2, SMAD2/3 luciferase reporter): 13.7 nM
- block of TGF-β activity compared with galunisertib and pirfenidone ([1]; LX2 cells): outperformed
- inhibition of VEGFR (VEGFR): ~75%
- motility (cell migration), real-time wound healing assay (LL47 cells): potently decreased motility
- contractility in collagen contraction assay (IPF lung fibroblasts; 0.5 or 1 mM OSI-632 as printed, TGF-β-stimulated): significantly decreased contractility
- inhibition of motility and contraction compared with nintedanib or pirfenidone (IPF lung fibroblasts; collagen contraction assay, IPF-LL29 and IPF-LL97A cells, 120 hours): significantly outperforms inhibition by nintedanib or pirfenidone
